Patent US9630894B2, “Energy efficient method and apparatus for the extraction of biomolecules from dilute aqueous solution” (DYNASEP INC., priority 2012, dated 2017)
“Also recorded” adds a separate entry of the source.

System: fermentation cultures
Experiment: DME toxicity study: solvent production / metabolite analysis by HPLC
Assay type: cell-based
Details: for Acetate concentration / Acetoin concentration / Acetone concentration / Butanol concentration / Butyrate concentration / Ethanol concentration / Glucose concentration: 196 hours after inoculation
Method: Toxicity studies were performed to determine the effects of DME on fermentation cultures. Cell growth, viability and solvent production were measured to determine what effect DME has on fermentation cultures. Cell growth was monitored by absorption measurements taken at 600 nm (A600). Viability was measured by counting the colony forming units (CFU) after 24 hours. Solvent production was quantified by HPLC.
The first round of testing was performed using media that had been sparged with DME gas at 23° C. The amount of DME absorbed into the media was measured by weight gain after sparging. […] Two control cultures were also used for direct comparison of cultures with and without the presence of DME.
A second round of testing was performed at lower DME concentrations. The concentration of DME varied from 0.7 wt. % to 2.9 wt. %. Cell densities were measured between 3 and 64 hours after inoculation. […] Based on the solvent measurements in Table 8 and Table 9 solvent production was also unaffected by DME at 0.7 wt. %. […] This is apparent after examination of the cell density and solvent production for samples 1-5, 2-1, 2-4 and 2-5 in comparison to the control samples 1-B and 2-B.

[1] = culture 2-1, weight % DME printed as ?

COC [DME, dimethyl ether]
effect on solvent production (DME at 0.7 wt. %): unaffected; also recorded: no noticeable effect | Metabolite conc. Final Acetate (culture 1-2, 3.48% DME): 42.01 mM | Metabolite conc. Final Acetoin (culture 1-2, 3.48% DME): 0.00 mM | Metabolite conc. Final Acetone (culture 1-2, 3.48% DME): 0.00 mM | Metabolite conc. Final Butanol (culture 1-2, 3.48% DME): 0.00 mM | Metabolite conc. Final Butyrate (culture 1-2, 3.48% DME): 101.72 mM | Metabolite conc. Final Ethanol (culture 1-2, 3.48% DME): 0.00 mM | Metabolite conc. Final Glucose (culture 1-2, 3.48% DME): 410.70 mM | Acetate concentration (culture 1-2, DME 18.1 g/L): 45.7 mM | Acetoin concentration (culture 1-2, DME 18.1 g/L): 1.7 mM | Acetone concentration (culture 1-2, DME 18.1 g/L): 4.9 mM | Butanol concentration (culture 1-2, DME 18.1 g/L): 11.7 mM | Butyrate concentration (culture 1-2, DME 18.1 g/L): 80.8 mM | Ethanol concentration (culture 1-2, DME 18.1 g/L): 1.9 mM | Glucose concentration (culture 1-2, DME 18.1 g/L): 381.5 mM | Metabolite conc. Final Acetate (culture 1-3, […] DME): 47.46 mM | Metabolite conc. Final Acetoin (culture 1-3, […] DME): 0.00 mM | Metabolite conc. Final Acetone (culture 1-3, […] DME): 8.33 mM | Metabolite conc. Final Butanol (culture 1-3, […] DME): 14.84 mM | Metabolite conc. Final Butyrate (culture 1-3, […] DME): 89.52 mM | Metabolite conc. Final Ethanol (culture 1-3, […] DME): 0.00 mM | Metabolite conc. Final Glucose (culture 1-3, […] DME): 380.17 mM | Metabolite conc. Final Acetate [1]: 33.46 mM | Metabolite conc. Final Acetoin [1]: 0.00 mM | Metabolite conc. Final Acetone [1]: 0.00 mM | Metabolite conc. Final Butanol [1]: 0.00 mM | Metabolite conc. Final Butyrate [1]: 94.00 mM | Metabolite conc. Final Ethanol [1]: 0.00 mM | Metabolite conc. Final Glucose [1]: 432.02 mM | Metabolite conc. Final Acetate (culture 2-2, 3.92% DME): 42.17 mM | Metabolite conc. Final Acetoin (culture 2-2, 3.92% DME): 0.00 mM | Metabolite conc. Final Acetone (culture 2-2, 3.92% DME): 0.00 mM | Metabolite conc. Final Butanol (culture 2-2, 3.92% DME): 0.00 mM | Metabolite conc. Final Butyrate (culture 2-2, 3.92% DME): 91.28 mM | Metabolite conc. Final Ethanol (culture 2-2, 3.92% DME): 0.00 mM | Metabolite conc. Final Glucose (culture 2-2, 3.92% DME): 418.43 mM | Acetone concentration (culture 2-2, DME 6.8 g/L): 10.2 mM | Butanol concentration (culture 2-2, DME 6.8 g/L): 23.6 mM | Butyrate concentration (culture 2-2, DME 6.8 g/L): 55.7 mM | Ethanol concentration (culture 2-2, DME 6.8 g/L): 3.8 mM | Metabolite conc. Final Acetate (culture 2-3, 3.72% DME): 34.46 mM | Metabolite conc. Final Acetoin (culture 2-3, 3.72% DME): 0,00 mM | Metabolite conc. Final Acetone (culture 2-3, 3.72% DME): 0.00 mM | Metabolite conc. Final Butyrate (culture 2-3, 3.72% DME): 86.91 mM | Metabolite conc. Final Ethanol (culture 2-3, 3.72% DME): 0.00 mM | Acetate concentration (culture 2-3, DME 6.6 g/L): 44.6 mM | Acetoin concentration (culture 2-3, DME 6.6 g/L): 5.6 mM | Acetone concentration (culture 2-3, DME 6.6 g/L): 9.6 mM | Butanol concentration (culture 2-3, DME 6.6 g/L): 21.6 mM | Butyrate concentration (culture 2-3, DME 6.6 g/L): 57.3 mM | Ethanol concentration (culture 2-3, DME 6.6 g/L): 3.8 mM | Glucose concentration (culture 2-3, DME 6.6 g/L): 338.3 mM | Acetate concentration (culture 2-4, DME 29.1 g/L): 42.5 mM | Acetoin concentration (culture 2-4, DME 29.1 g/L): 0.0 mM | Acetone concentration (culture 2-4, DME 29.1 g/L): 2.1 mM | Butanol concentration (culture 2-4, DME 29.1 g/L): 3.7 mM | Butyrate concentration (culture 2-4, DME 29.1 g/L): 94.8 mM | Ethanol concentration (culture 2-4, DME 29.1 g/L): 0.0 mM | Glucose concentration (culture 2-4, DME 29.1 g/L): 403.0 mM | Acetate concentration (culture 2-5, DME 27.9 g/L): 41.7 mM | Acetoin concentration (culture 2-5, DME 27.9 g/L): 0.0 mM | Acetone concentration (culture 2-5, DME 27.9 g/L): 4.3 mM | Butanol concentration (culture 2-5, DME 27.9 g/L): 7.2 mM | Butyrate concentration (culture 2-5, DME 27.9 g/L): 94.5 mM | Ethanol concentration (culture 2-5, DME 27.9 g/L): 0.0 mM | Glucose concentration (culture 2-5, DME 27.9 g/L): 396.9 mM | effect on solvent production (cultures containing DME, 3 to 4 wt. %): greatly reduced
